Values joined by “and” are separate entries in the source; they are usually repeats but may differ in a detail not shown here. Equal values may be shown once. “Also recorded” adds a separate entry of the source.
What was measured:
[1] = In vitro stability in PBS; type: physicochemical; conditions: 0.1 M PBS pH 7.4, 37 °C
Description: (§1) 3.7. In Vitro Stability Experiments
The in vitro stability of [^125I]10 was examined in phosphate buffered saline (PBS) and mouse plasma. Briefly, [^125I]10 solution (50 µL) in a sealed tube containing 0.1 M PBS pH 7.4 (450 µL) was incubated at 37 °C for 1 and 24 h. After incubation, the purities of radiotracers were analyzed by RP-HPLC with mobile phase system water (A) and methanol (B), B: 70–100%, 20 min using a Cosmosil® 5C18 MSII (4.6 ID × 150 mm) column, a flow rate 1 mL/min. The column temperature was kept at 40 °C.

[2] = In vitro stability in murine plasma; type: in vitro ADME, mouse; conditions: 37 °C
Description: as §1
The plasma was prepared by centrifugation of murine blood at 4 °C for 20 min at […]. The reaction was started by the addition of [^125I]10 (20 μL) in the plasma (180 µL). The mixture was incubated in a shaker at 300 rpm at 37 °C, which was carried out three times. Samples (100 µL) were taken at 0, 1 and 24 h and 100 µL acetonitrile, divided into five portions, was added for deproteinization of the plasma. The samples were left in the fridge for 15 min and then centrifuged at 4 °C for 15 min at […]. The supernatant was filtered through a pore size of 0.45 μm, then analyzed by RP-HPLC with a mobile phase gradient system water (A) and methanol (B), B: 70–100%, for 20 min using a Cosmosil® 5C18 MSII (4.6 ID × 150 mm) column at a flow rate of 1 mL/min. The column temperature was maintained at 40 °C. Radioactivity was measured by an auto well gamma counter.

[3] = system: H3255 cells (L858R active mutant EGFR); experiment: Cellular uptake study, H3255; type: cell-based, human
Description: 3.8. Cellular Uptake Studies
Then, the cell culture was incubated in a serum-free medium containing [^125I]10 (3.7 kBq/well) for 4 h. The medium from each well was removed and the cells were washed with 1 mL of ice-cold PBS. Finally, all cell fractions were lysed twice with 0.5 mL of 1 M NaOH aqueous solution. The radioactivity of every fraction was determined by an auto well gamma counter. Total cell protein was determined using the Bicinchoninic Acid (BCA) Protein Assay Kit (Nacalai) protocol, which uses bovine serum albumin as a standard reference. […]. All data were expressed as percent dose per milligram of protein (% dose/mg protein) ± SD.

[4] = Biodistribution in normal ddY mice; type: in vivo, mouse
Description: (§2) Male ddY mice (27–30 g, 6 weeks old) and female BALB/c nu/nu mice (12–17 g, 4 weeks old) were purchased from Japan SLC Inc. (Hamamatsu, Japan). The mice were housed in a cage with free access to food and water maintained at a constant temperature (23–25 °C) with a 12 h light/dark cycle. […] The tumor reached palpable size 2- and 3-weeks post-inoculation. Animal experiments were conducted in accordance with laboratory guidelines for the care and use of animals of Kanazawa University. The animal handling protocol was approved by the Kanazawa University Animal Care Committee (approval number: AP-163766). 3.10. Biodistribution Studies Mice were injected intravenously via the lateral tail vein with a saline solution of [^125I]10 (25 kBq, 100 μL) containing 1% tween-80 and 10% ethanol. The ddY mice were sacrificed at 10 min, 1, 4 and 24 h; meanwhile, the tumor-bearing mice were sacrificed at 1 and 4 h post injection. The selected tissues and organs were collected and weighed and their radioactivity was measured using an auto well gamma counter. […] The mice were sacrificed 1 h after the administration of radiotracer. The biodistribution data are expressed as percent injected dose per gram of tissue (% ID/g) along with the SD.

H1975 tumor = experiment: Biodistribution in tumor-bearing mice, H1975 tumor; type: in vivo, mouse; conditions: for effect of CO-1686 pretreatment on accumulation in H1975 tumor: excess dose CO-1686 (30 mg/kg i.p.) 1 h prior
Description: as §2

C=CC(=O)Nc1cc([125I])cc(Nc2nc(Nc3ccc(N4CCN(C(C)=O)CC4)cc3OC)ncc2C(F)(F)F)c1 [[^125I]10]
stability in PBS ([1]; 24 h incubation): purity decreased gradually
stability in PBS ([1]; until 1 h): slightly decomposed
stability in plasma ([2]; 24 h incubation): purity decreased gradually
stability in plasma ([2]; until 1 h): slightly decomposed; also recorded: hardly decomposed
cell uptake ([3]; H3255, 4 h incubation): 33.52 % dose/mg protein
reduction of accumulation by gefitinib ([3]; H3255, gefitinib 100 µM): over 50%
radiotracer excreted in feces ([4]; 24 h after injection): ~70%
Biodistribution, Blood ([4]; i.v., 10 min): 1.06 (0.19) % ID/g tissue
Biodistribution, Bone ([4]; i.v., 10 min): 1.16 (0.21) % ID/g tissue
Biodistribution, Brain ([4]; i.v., 10 min): 0.11 (0.02) % ID/g tissue
Biodistribution, Heart ([4]; i.v., 10 min): 3.11 (0.64) % ID/g tissue
Biodistribution, Kidney ([4]; i.v., 10 min): 7.48 (1.55) % ID/g tissue
Biodistribution, Large intestine ([4]; i.v., 10 min): 0.57 (0.04) % ID/g tissue
Biodistribution, Liver ([4]; i.v., 10 min): 26.69 (0.81) % ID/g tissue
Biodistribution, Lung ([4]; i.v., 10 min): 4.47 (1.39) % ID/g tissue
Biodistribution, Muscle ([4]; i.v., 10 min): 1.40 (0.16) % ID/g tissue
Biodistribution, Pancreas ([4]; i.v., 10 min): 1.93 (0.37) % ID/g tissue
Biodistribution, Small intestine ([4]; i.v., 10 min): 9.46 (2.19) % ID/g tissue
Biodistribution, Spleen ([4]; i.v., 10 min): 2.14 (0.50) % ID/g tissue
Biodistribution, Stomach ([4]; i.v., 10 min): 3.52 (2.70) % ID/organ
Biodistribution, Blood ([4]; i.v., 1 h): 0.49 (0.05) % ID/g tissue
Biodistribution, Bone ([4]; i.v., 1 h): 0.50 (0.22) % ID/g tissue
Biodistribution, Brain ([4]; i.v., 1 h): 0.05 (0.02) % ID/g tissue
Biodistribution, Heart ([4]; i.v., 1 h): 0.79 (0.13) % ID/g tissue
Biodistribution, Kidney ([4]; i.v., 1 h): 3.76 (0.40) % ID/g tissue
Biodistribution, Large intestine ([4]; i.v., 1 h): 0.53 (0.08) % ID/g tissue
Biodistribution, Liver ([4]; i.v., 1 h): 18.57 (2.72) % ID/g tissue
Biodistribution, Lung ([4]; i.v., 1 h): 1.33 (0.08) % ID/g tissue
Biodistribution, Muscle ([4]; i.v., 1 h): 0.44 (0.05) % ID/g tissue
Biodistribution, Pancreas ([4]; i.v., 1 h): 0.99 (0.26) % ID/g tissue
Biodistribution, Small intestine ([4]; i.v., 1 h): 23.96 (2.18) % ID/g tissue
Biodistribution, Spleen ([4]; i.v., 1 h): 0.90 (0.17) % ID/g tissue
Biodistribution, Stomach ([4]; i.v., 1 h): 5.10 (1.18) % ID/organ
Biodistribution, Blood ([4]; i.v., 4 h): 0.33 (0.07) % ID/g tissue
Biodistribution, Bone ([4]; i.v., 4 h): 0.29 (0.11) % ID/g tissue
Biodistribution, Brain ([4]; i.v., 4 h): 0.03 (0.01) % ID/g tissue
Biodistribution, Heart ([4]; i.v., 4 h): 0.35 (0.09) % ID/g tissue
Biodistribution, Kidney ([4]; i.v., 4 h): 2.37 (0.17) % ID/g tissue
Biodistribution, Large intestine ([4]; i.v., 4 h): 53.44 ± 6.73 % ID/g tissue and 53.44 (6.73) % ID/g tissue
Biodistribution, Liver ([4]; i.v., 4 h): 7.85 (0.92) % ID/g tissue
Biodistribution, Lung ([4]; i.v., 4 h): 0.86 (0.10) % ID/g tissue
Biodistribution, Muscle ([4]; i.v., 4 h): 0.13 (0.03) % ID/g tissue
Biodistribution, Pancreas ([4]; i.v., 4 h): 0.41 (0.03) % ID/g tissue
Biodistribution, Small intestine ([4]; i.v., 4 h): 9.81 (1.03) % ID/g tissue
Biodistribution, Spleen ([4]; i.v., 4 h): 0.58 (0.11) % ID/g tissue
Biodistribution, Stomach ([4]; i.v., 4 h): 1.38 (0.56) % ID/organ
Biodistribution, Blood ([4]; i.v., 24 h): 0.05 (0.01) % ID/g tissue
Biodistribution, Bone ([4]; i.v., 24 h): 0.07 (0.05) % ID/g tissue
Biodistribution, Brain ([4]; i.v., 24 h): 0.01 (0.01) % ID/g tissue
Biodistribution, Feces ([4]; i.v., 24 h): 69.9 % ID
Biodistribution, Heart ([4]; i.v., 24 h): 0.09 (0.05) % ID/g tissue
Biodistribution, Kidney ([4]; i.v., 24 h): 0.25 (0.01) % ID/g tissue
Biodistribution, Large intestine ([4]; i.v., 24 h): 0.34 (0.08) % ID/g tissue
Biodistribution, Liver ([4]; i.v., 24 h): 0.80 (0.10) % ID/g tissue
Biodistribution, Lung ([4]; i.v., 24 h): 0.26 (0.03) % ID/g tissue
Biodistribution, Muscle ([4]; i.v., 24 h): 0.04 (0.04) % ID/g tissue
Biodistribution, Pancreas ([4]; i.v., 24 h): 0.10 (0.11) % ID/g tissue
Biodistribution, Small intestine ([4]; i.v., 24 h): 0.10 (0.01) % ID/g tissue
Biodistribution, Spleen ([4]; i.v., 24 h): 0.08 (0.04) % ID/g tissue
Biodistribution, Stomach ([4]; i.v., 24 h): 0.08 (0.02) % ID/organ
Biodistribution, Urine ([4]; i.v., 24 h): 4.07 (0.83) % ID/g tissue
effect of CO-1686 pretreatment on accumulation in H1975 tumor (H1975 tumor): not inhibited
effect of CO-1686 pretreatment on accumulation in H1975 tumor (H1975 tumor; listed as [^125I]ICO1686): not reduced
tumor/blood ratio (H1975 tumor; tumor-bearing mice): approximately 1
Biodistribution, H1975 tumor (H1975 tumor; tumor-bearing mice, Blocking (1 h), CO-1686 30 mg/kg i.p. 1 h prior): 1.65 (0.64) % ID/g tissue
Biodistribution, H1975 tumor (H1975 tumor; tumor-bearing mice, i.v., 1 h): 1.77 (0.43) % ID/g tissue
Biodistribution, H1975 tumor (H1975 tumor; tumor-bearing mice, i.v., 1 h, listed as [^125I]ICO1686): 1.77 ± 0.43 % ID/g tissue
Biodistribution, H1975 tumor (H1975 tumor; tumor-bearing mice, i.v., 4 h): 0.43 (0.08) % ID/g tissue

From PMC7356761 (Molecules, 2020)
